Experimental data reported in patent publication US9414590B2, “Chemical and biological agents for the control of molluscs” (priority 2009, dated 2016).
Where two headings read alike, the source gives them in different places.

Legend:
quagga mussels [1] = assay: Mussel bioassay test (live mussel jar-test); type: in vivo, Dreissena bugensis; details: Dreissena rostriformis, 16 μg/ml
Description: Twenty freshly collected quagga mussels is placed in a jar containing 250 mL of de-chlorinated tap water at room temperature. Jars are kept at room temperature and connected into a manifold providing constant air supply through bubbling. Each test subject (HPLC fraction or peak) dissolved in DMSO is pipetted into jars separately at a concentration of 1-5 mg, and the mussels are incubated with the test subject for 24 hours. After the incubation period, water in each jar is discarded, and the mussels are rinsed with fresh water and transferred into open glass petri dishes for a 10-day observation period. Mussels are checked daily for mortality, and the dead mussels are removed and discarded. Each treatment is carried out in three replicates, and in the end of the 10-day incubation period, % mortality is calculated for each treatment.
The potency of compounds isolated from Pseudomonas cell culture is tested using procedures described above.

CL145A (ATCC 55799) = assay: Antibiotic resistance profile, discs on Mueller-Hinton Agar; type: cell-based, Pseudomonas protegens strain CL145A; details: for CL145A resistant or sensitive to the antibiotic: antibiotic disc, 72 hours incubation; for Suppresses growth of CL145A: 25° C., 72 hours
Description: One glycerol stock vial of CL145A was equally distributed onto Mueller-Hinton Agar plates (100 μl per plate) and spread on the plate using a sterile cell spreader. Antibiotic discs were then placed onto the plates along with a blank sterile disc. Plates were incubated at 25° C. in the dark for 72 hours.

quagga mussels [2] = assay: whole plant or invertebrate; details: Dreissena rostriformis
[3] = tested on: Brown garden snails (Cantareus aspersus); assay: Snail experiments: chemical-containing corn starch; type: in vivo; details: 100 mg/gram corn starch; for Consumed amount of corn starch: after 24 hr
Description: An appropriate amount of a testing compound is dissolved in acetone (2 mL) first. The solution was added into 2.5 gram of corn starch and mixed well. The resulting mixture is transferred to a Petri dish (Φ 25 mm). The Petri dish is then put in the hood for natural dry. After drying, water (2 mL) is added into the Petri dish to make paste.
Brown garden snails (Cantareus aspersus) are collected from a house garden and raised at least 1 day in lab with cabbage or red carrot. Five individuals with a similar size are chosen for each treatment and transferred into a 1 L beaker. To make the snail active, some water is sprayed on them and in the beaker by using hand-sprayer. After spraying water, the Petri dish with chemical-containing corn starch is placed into the beaker the beaker is covered on the top with aluminum foil. Eating behavior, consumed amount of corn starch and mortality at 24 hr is recorded.

[4] = 24 hr, read-out: % mortality 24 hr
[5] = 48 hr, read-out: % mortality 48 hr
[6] = 72 hr, read-out: % mortality 72 hr
[7] = 96 hr, read-out: % mortality 96 hr
[8] = 24 h, read-out: Molluscicidal effect (mortality) 24 hr
[9] = 48 h, read-out: Molluscicidal effect (mortality) 48 hr
[10] = 72 h, read-out: Molluscicidal effect (mortality) 72 hr
[11] = 96 h, read-out: Molluscicidal effect (mortality) 96 hr
[12] = 24 h, read-out: Potency toward quagga mussels (mortality) 24 hr
[13] = 48 h, read-out: Potency toward quagga mussels (mortality) 48 hr
[14] = 72 h, read-out: Potency toward quagga mussels (mortality) 72 hr
[15] = 96 h, read-out: Potency toward quagga mussels (mortality) 96 hr

Compound | mortality at 11.1 µg/mL (quagga mussels [2]; [8]) [%] | mortality at 11.1 µg/mL (quagga mussels [2]; [9]) [%] | mortality at 11.1 µg/mL (quagga mussels [2]; [10]) [%] | mortality at 11.1 µg/mL (quagga mussels [2]; [11]) [%] | mortality at 11.1 µg/mL (quagga mussels [2]; [12]) [%] | mortality at 11.1 µg/mL (quagga mussels [2]; [13]) [%] | mortality at 11.1 µg/mL (quagga mussels [2]; [14]) [%] | mortality at 11.1 µg/mL (quagga mussels [2]; [15]) [%] | other results
CCCCC/C=C/C(O)CCCCCCCCCC(=O)O (stereo not drawn) [11-Hydroxy-12-ene-octadecanoic acid] | – | – | – | – | – | – | – | – | mortality at 16 µg/mL (quagga mussels [1]; [4]): 0%; mortality at 16 µg/mL (quagga mussels [1]; [5]): 20 ± 20%; mortality at 16 µg/mL (quagga mussels [1]; [6]): 33.3 ± 20.8%; mortality at 16 µg/mL (quagga mussels [1]; [7]): 40 ± 26.5%
CC1(C)S[C@@H]2[C@H](NC(=O)[C@H](N)c3ccccc3)C(=O)N2[C@H]1C(=O)O [Ampicillin] | – | – | – | – | – | – | – | – | CL145A resistant or sensitive to the antibiotic (CL145A (ATCC 55799)): resistant; Suppresses growth of CL145A (CL145A (ATCC 55799); disc 10 μg): No
CO/N=C(\C(=O)N[C@@H]1C(=O)N2C(C(=O)O)=C(COC(N)=O)CS[C@H]12)c1ccco1 [Cefuroxime] | – | – | – | – | – | – | – | – | CL145A resistant or sensitive to the antibiotic (CL145A (ATCC 55799)): resistant; Suppresses growth of CL145A (CL145A (ATCC 55799); disc 30 μg): No
O=C(N[C@H](CO)[C@H](O)c1ccc([N+](=O)[O-])cc1)C(Cl)Cl [Chloramphenicol] | – | – | – | – | – | – | – | – | CL145A resistant or sensitive to the antibiotic (CL145A (ATCC 55799)): resistant; Suppresses growth of CL145A (CL145A (ATCC 55799); disc 30 μg): No
CC[C@H]1OC(=O)[C@H](C)[C@@H](O[C@H]2C[C@@](C)(OC)[C@@H](O)[C@H](C)O2)[C@H](C)[C@@H](O[C@@H]2O[C@H](C)C[C@H](N(C)C)[C@H]2O)[C@](C)(O)C[C@@H](C)C(=O)[C@H](C)[C@@H](O)[C@]1(C)O [Erythromycin] | – | – | – | – | – | – | – | – | CL145A resistant or sensitive to the antibiotic (CL145A (ATCC 55799)): resistant; Suppresses growth of CL145A (CL145A (ATCC 55799); disc 15 μg): No
CCCCC/C=C/C(O)CCCCCCC1CCC(=O)O1 (stereo not drawn) [Piliferolide A] | – | – | – | – | – | – | – | – | mortality at 16 µg/mL (quagga mussels [1]; [4]): 53.3 ± 15.3%; mortality at 16 µg/mL (quagga mussels [1]; [5]): 53.3 ± 15.3%; mortality at 16 µg/mL (quagga mussels [1]; [6]): 70 ± 10%; mortality at 16 µg/mL (quagga mussels [1]; [7]): 80 ± 10%
CCN1CCN(C(=O)N[C@@H](C(=O)N[C@@H]2C(=O)N3[C@@H]2SC(C)(C)[C@@H]3C(=O)O)c2ccccc2)C(=O)C1=O [Piperacillin] | – | – | – | – | – | – | – | – | CL145A resistant or sensitive to the antibiotic (CL145A (ATCC 55799)): sensitive; Suppresses growth of CL145A (CL145A (ATCC 55799); disc 100 μg): Yes
CCCCCCCCC1CCC(=O)O1 (stereo not drawn) [SAR-001] | 86.7 ± 5.8 | 96.7 ± 5.8 | 96.7 ± 5.8 | 96.7 ± 5.8 | – | – | – | – | –
CCCCCCCC1CCOC1=O (stereo not drawn) [SAR-002] | 30 ± 10 | 66.7 ± 15.3 | 73.3 ± 11.5 | 76.7 ± 15.3 | – | – | – | – | –
CCCCCCCCC1CCCC(=O)O1 (stereo not drawn) [SAR-003] | 3.3 ± 5.7 | 10 ± 10 | 10 ± 10 | 10 ± 10 | – | – | – | – | –
CCCCCCCCCC1CCCC(=O)O1 (stereo not drawn) [SAR-004] | 0 | 0 | 0 | 0 | – | – | – | – | –
CCCCCCCCCCCC(=O)O [SAR-005] | 0 | 0 | 0 | 0 | – | – | – | – | –
CCCCCCCCC(O)CCC(=O)O (stereo not drawn) [SAR-006] | 0 | 0 | 0 | 0 | – | – | – | – | –
CCCCCCCCCC(=O)N1CCCC1 [SAR-007, N-(Decanoyl)pyrrolidine] | – | – | – | – | 35 ± 7 | 50 ± 14 | 55 ± 21 | 65 ± 21 | –
CCCCCC1CCC(=O)O1 (stereo not drawn) [SAR-008] | 0 | 0 | 0 | 0 | – | – | – | – | –
CCCC1CCC(=O)O1 (stereo not drawn) [SAR-011] | 0 | 0 | 0 | 0 | – | – | – | – | –
O=C1CCC(c2ccccc2)O1 (stereo not drawn) [SAR-013] | 0 | 0 | 0 | 0 | – | – | – | – | –
CCCCCCC1CCC(=O)O1 (stereo not drawn) [SAR-014] | 0 | 0 | 0 | 0 | – | – | – | – | Effect on brown garden snails [3]: strongly repel brown garden snails; 24 hr mortality ([3]; 24 hr): 0%; Consumed amount of corn starch [3]: 0% after
CCCCCCCCCC(=O)NC1CCCC1 [SAR-020, N-Cyclopentyldecanamide] | – | – | – | – | 75 ± 7 | 75 ± 7 | 75 ± 7 | 75 ± 7 | –
CCCCCCCCCC(=O)N1CCCCC1 [SAR-021, N-(Decanoyl)piperidine] | – | – | – | – | 55 ± 21 | 55 ± 21 | 60 ± 14 | 65 ± 7 | –
CCCCCCCCCC(=O)N1CCCCCC1 [SAR-022, N-(Decanoyl)hexamethyleneimine] | – | – | – | – | 35 ± 7 | 40 ± 14 | 40 ± 14 | 45 ± 21 | –
O=C(/C=C/c1ccccc1)NC1CCCC1 [SAR-023, N-Cyclopentylcinnamamide] | – | – | – | – | 0 | 0 | 0 | 0 | –
O=C(/C=C/c1ccccc1)N1CCCC1 [SAR-024, N-(trans-Cinnamoyl)pyrrolidine] | – | – | – | – | 0 | 0 | 0 | 0 | –
O=C(/C=C/c1ccccc1)N1CCCCC1 [SAR-025, N-(trans-Cinnamoyl)piperidine] | – | – | – | – | 0 | 0 | 0 | 0 | –
O=C(/C=C/c1ccccc1)N1CCCCCC1 [SAR-026, N-(trans-Cinnamoyl) hexamethyleneimine] | – | – | – | – | 0 | 0 | 0 | 0 | –
CCCCCCC/C=C/C(=O)NC1CCCC1 [SAR-027, N-Cyclopentyldecenamide] | – | – | – | – | 85 ± 7 | 95 ± 7 | 95 ± 7 | 95 ± 7 | –
CCCCCCCC=CC(=O)N1CCCC1 [SAR-030, N-(Decenoyl)pyrrolidine] | – | – | – | – | – | – | – | – | Effect on brown garden snails [3]: kill all brown garden snails after they ate; Consumed amount of corn starch [3]: Less than 5%
[H]/N=C(/N)N[C@H]1[C@H](O)[C@@H](O)[C@H](O[C@@H]2O[C@@H](C)[C@](O)(C=O)[C@H]2O[C@@H]2O[C@@H](CO)[C@H](O)[C@@H](O)[C@@H]2NC)[C@@H](N/C(N)=N\[H])[C@@H]1O [Streptomycin] | – | – | – | – | – | – | – | – | CL145A resistant or sensitive to the antibiotic (CL145A (ATCC 55799)): resistant; Suppresses growth of CL145A (CL145A (ATCC 55799); disc 10 μg): No
Gentamicin | – | – | – | – | – | – | – | – | CL145A resistant or sensitive to the antibiotic (CL145A (ATCC 55799)): sensitive; Suppresses growth of CL145A (CL145A (ATCC 55799); disc 10 μg): Yes
Penicillin | – | – | – | – | – | – | – | – | CL145A resistant or sensitive to the antibiotic (CL145A (ATCC 55799)): resistant; Suppresses growth of CL145A (CL145A (ATCC 55799); disc 10 μg): No
